In patent US7135473B2, “Cyclic diamine compound with condensed-ring groups” (Kowa Co., Ltd., priority 2001, dated 2006):

Legend:
[1] = test system: U937 cells adhered to HUVEC stimulated by IL-1β; experiment: Inhibitory effect on cell adhesion, stimulation by IL-1β; assay type: cell-based; conditions: Homo sapiens, compound at 1 μM, read-out: Inhibitory activity against cell adhesion, Percent inhibition (%), Stimulation by IL-1β
Procedure: (§1) This test was conducted by reference to the method of Ross et al. (J. Biol. Chem., 267, 8537–8543(1992). More specifically, after human umbilical venous endothelial cells (HUVEC) were cultured on a 48-well plate to confluent growth, IL-1β or TNFα was added thereto. After culturing for 5 hours, U937, which is a human monocytic/histocytic cell fluorescence-labeled with PKH2(product of Dainippon Pharmaceutical Co., Ltd.), was added in a proportion of 1×10^6 cells per well. After the plate was left at rest at room temperature for 1 hour, unadhered U937 was washed out and lysed in 1% Triton X-100 to measure a remaining fluorescence intensity (excitation wavelength: 480 nm; measuring wavelength: 530 nm). HUVEC and U937 were cultured in EGM-2 (product of Sanko Junyaku K. K.) and 10% FCS-containing RPMI1640, respectively. Each test agent was added to HUVEC upon the addition of IL-1β or TNFα and to U937 24 hours prior to the cell adhesion test. The inhibitory activity was calculated out according to the equation [100−(C−B)/(A−B)×100(%)], wherein A is the number of U937 cells adhered to HUVEC stimulated by IL-1β or TNFα when no test agent was added, B is the number of U937 cells adhered to HUVEC not stimulated by IL-1β or TNFα when no test agent was added, and C is the number of U937 cells adhered to HUVEC stimulated by IL-1β or TNFα when the test agent was added. As control compounds, Test Compound 1 described in Japanese Patent Application Laid-Open No. 9–143075 and dilazep described in Japanese Patent Application Laid-Open No. 11–92382 were simultaneously evaluated.

[2] = test system: U937 cells adhered to HUVEC stimulated by TNFα; experiment: Inhibitory effect on cell adhesion, stimulation by TNFα; assay type: cell-based; conditions: Homo sapiens, compound at 1 μM, read-out: Inhibitory activity against cell adhesion, Percent inhibition (%), Stimulation by TNFα
Procedure: as §1

## COc1cc2sc(CN3CCCN(Cc4cc5c(OC)c(OC)c(OC)cc5s4)CC3)cc2c(OC)c1OC [Example 41, N,N′-bis[(4,5,6-trimethoxybenzothiophen-2-yl)methyl]homopiperazine]
[1]
  inhibition at 1 µM: 52%
[2]
  inhibition at 1 µM: 27%

## COc1cc(C(=O)OCCCN2CCCN(CCCOC(=O)c3cc(OC)c(OC)c(OC)c3)CC2)cc(OC)c1OC [Dilazep, dilazep, reference compound]
[1]
  inhibition at 1 µM: 0%
[2]
  inhibition at 1 µM: 12%

## COc1cc2nc(CN3CCN(Cc4nc5cc(OC)c(OC)c(OC)c5s4)CC3)sc2c(OC)c1OC [Example 32, N,N′-bis[(5,6,7-trimethoxybenzothiazol-2-yl)methyl]piperazine]
[1]
  inhibition at 1 µM: 54%
[2]
  inhibition at 1 µM: 52%

## COc1cc2cc(CCN3CCCN(CCc4ccc5c(OC)c(OC)c(OC)cc5c4)CC3)ccc2c(OC)c1OC [Example 6, N,N′-bis[2-(5,6,7-trimethoxynaphthalen-2-yl)ethyl]homopiperazine]
[1]
  inhibition at 1 µM: 57%
[2]
  inhibition at 1 µM: 69%

## COc1cc2nc(CN3CCCN(Cc4nc5cc(OC)c(OC)c(OC)c5s4)CC3)sc2c(OC)c1OC [Example 33, N,N′-bis[(5,6,7-trimethoxybenzothiazol-2-yl)methyl]homopiperazine]
[1]
  inhibition at 1 µM: 64%
[2]
  inhibition at 1 µM: 79%
